Reference: patent publication EP3036295B1, “OFFSET PRINTING INKS COMPRISING AN ISOSORBIDE FATTY ACID ESTER SOLVENT” (OLEON NV, priority 2013, dated 2015)

Key:
[1] = Surface tension, Du Noüy ring method; assay type: physicochemical
Description: The surface tension was measured using the Du Noüy ring method (http://www.kruss.de/en/theory/measurements/surface-tension/ring-method.html. The surface or interfacial tension is measured with the help of an optimally wettable ring suspended from a precision balance. A height-adjustable sample carrier is used to bring the liquid to be measured into contact with the probe. A force acts on the balance as soon as the probe touches the surface. If the length of the probe is known (circumference of ring or length of plate) the force measured can be used to calculate the interfacial or surface tension. A further requirement is that the probe must have a very high surface energy. This is why a platinum-iridium alloy is used for the ring and roughened platinum for the plate.
The liquid is raised until contact with the surface is registered. The sample is then lowered again so that the liquid film produced beneath the ring is stretched. As the film is stretched a maximum force is experienced; this is recorded in the measurement. At the maximum the force vector is exactly parallel to the direction of motion; at this moment the contact angle θ is 0°. In practice the distance is first increased until the area of maximum force has been passed through. The sample vessel containing the liquid is then moved back so that the maximum point is passed through a second time. The maximum force is only determined exactly on this return movement and used to calculate the tension. The calculation is made according to the following equation: σ = (Fmax −FV)/(L⋅cosθ) [formula] (σ =surface or interfacial tension; Fmax=maximum force; FV=weight of volume of liquid lifted; L=wetted length, θ=contact angle) The contact angle θ decreases as the extension increases and has the value 0° at the point of maximum force, this means that the term cos θ has the value 1.

[2] = Kauri butanol value (solvent power), ASTM D1133; assay type: physicochemical; conditions: Table 2, comparison with conventional solvents
Text: The "Kb value" is a measure of solvent power, and may be determined using the standardized test ASTM D1133. A high Kb value is an indication that the isosorbide ester is more capable in dissolving a wide range of resins of varying nature, and in higher concentrations, as compared to existing solvents used in offset printing inks. This is important as offset inks usually contain besides one or more pigments, approximately 40-65 wt. % of resin binders, for example rosin resins, maleic resins, hydrocarbon resins and alkyd resins, to ensure formation of a polymer film which binds the pigments or dyes together and provides resistance properties. Such resin binders are usually absent in inkjet printing inks. The offset printing ink may further comprise approximately 3 - 6 wt. % of additives, for example waxes, siccative agents and/or inhibitors. Without wanting to be bound by this theory, the applicants believe that this advantageous combination of properties, i.e. high wetting power of the pigments and high Kb value associated with good dissolution properties for the resin component present in the offset ink, must be attributed to the structure of the isosorbide moiety in the ester molecule. […]
In addition the inventors have observed that the Kb value may further be tuned by varying the nature of the carboxylic acid of the isosorbide ester and/or by varying the degree of esterification, in order to provide an ester with good solvent properties or an ester which functions much more as a diluent for the other components present in a formulation. […] Kauri resin is readily soluble in 1-butanol but is not soluble in many other solvents. […] Better solvents, for example toluene, may be added up to larger quantities before the solution becomes cloudy, and thus have a high Kauri butanol value. Weaker solvents like hexane may only be added in smaller quantities and will have a small Kauri butanol value. The Kauri butanol value (Kb value) is usually determined according to ASTM D1133 standardized test. […]

[3] = system: bacteria, fungi and yeasts; conditions: WO 2013/017257 A1; cited from earlier work

Compound	Surface tension Du Noüy ring method [1] [mN/m]	Kauri butanol ASTM D 1133 [2]	antimicrobial activity [3]
C=C(C)[C@H]1CC=C(C)CC1 [D-limonene]	25	67	
Cc1ccccc1 [Toluene]	29	105	
O[C@@H]1CO[C@H]2[C@@H]1OC[C@@H]2O [isosorbide, Isosorbide]			isosorbide itself, nor the dicaprylate, exhibit any such activity
Xylene	29	90	
isosorbide dicaprylate			isosorbide itself, nor the dicaprylate, exhibit any such activity
isosorbide monocaprylate			responsible for the antimicrobial activity observed
